For 35 molecules, melting point results are on record in a melting point compilation (Tetko et al.; mined from patent text by program, amines drawn as free bases though some values may be those of a salt).

Each structure is given as a SMILES string.

Turning to `N#Cc1cc(Cl)[nH]c1-c1oc2ccccc2c1Cl`, the melting point (in general, the temperature, or range, at which the solid turns liquid) was in the range of 224 to 226 °C.

For the molecule `COc1ccc2c(c1)c1c(n2-c2ccccc2)C(=O)CO1`, the melting point amounted to 175 °C.

As to `CCOC(=O)C(NC(=O)CC(=O)C=Cc1ccccc1[N+](=O)[O-])C(C)C` (stereo not given), the melting point is 106 to 107 °C.

For `CNC(=C[N+](=O)[O-])NCc1ccc(Cl)nc1Cl`, the melting point is 211 to 213 °C.

On to `COc1cc(Nc2c(C#N)cnc3cc(-c4ccc(CNCCc5ccccn5)o4)ccc23)c(Cl)cc1Cl`, for which the melting point is 130 to 135 °C.

For the molecule `O=Cc1c(N2CCNCC2)n(Cc2ccccc2)c2ccccc12`, the melting point lay within 163 to 165 °C.

`CCOC(=O)C1=C(C)NC(C)=C(C(=O)OCC2CC2)C1c1cccc([N+](=O)[O-])c1` (stereo not given) had a melting point of 169 to 170 °C.

As for `COc1ccc(C(=O)Nc2cccnc2)cc1Nc1cccc(C(F)(F)F)c1`, the melting point fell in the range of 184 to 185 °C.

Regarding `CC(=N)Nc1cccc(C(C)O)c1` (stereo not given), the melting point was 132 to 135 °C.

The molecule `CC(C)Oc1cc(C(=O)O)n(Cc2ncc(C(F)(F)F)cc2Cl)n1` gave a melting point of 124 to 125 °C.

The molecule `Cc1nc2cc3c(cc2nc1C(=O)OC(C)(C)C)OC(C)(C)O3` yielded a melting point of 104 to 105 °C.

Regarding `Cc1nnnn1-c1ccc(/C(=C\C2CCCC2)C(=O)O)cc1F`, the melting point was 182 to 185 °C.

`Clc1ccc2nc(-c3ccccc3)c(-c3ccnnc3)n2n1`: the melting point lay within 200 to 207 °C.

For the molecule `CC(C)N1CCOC(CN2C(=O)C3(COc4cc5c(cc43)OCCO5)c3ccccc32)C1` (stereo not given), the melting point lay within 102 to 125 °C.

The molecule `CC(C)n1nc(-c2sc(C(=O)NCC(N)=O)nc2-c2ccccc2)ccc1=O` gave a melting point of 248 to 249 °C.

The molecule `COc1ccc(C2=NN(C3CCN(C(=O)N4CCOCC4)CC3)C(=O)[C@@H]3CC=CC[C@H]23)cc1OC` had a melting point of 184 to 185 °C.

Regarding `O=C1c2ccccc2S(=O)(=O)N1CSc1nnc(SCCN2CCCCC2)s1`, the melting point lay within 100 to 101 °C.

On to `CC1(C(O)CBr)COc2cc(Cl)ccc2O1` (stereo not given), for which the melting point lay within 133 to 135 °C.

With `CCC(=O)NC1CCc2cc(OC)ccc2C1` (stereo not given), the melting point stood at 125 °C.

For `CC(=O)OCC1CC(Nc2cc(Cl)c(Cl)cc2[N+](=O)[O-])C(OC(C)=O)C1OC(C)=O` (stereo not given), the melting point lay in the range of 128 to 130 °C.

`CC(CNCc1ccccc1O)NCc1ccccc1O` (stereo not given) yielded a melting point of 57 to 58 °C.

Molecule `COc1ccc(N2CCN(Cc3cnc(N)nc3N)CC2)cc1` displayed a melting point of 239 to 241 °C.

`Cc1cc(C)c2c(c1)nc(NC1CCN(CCO)CC1)n2Cc1nc(C)ccc1O` returned a melting point of 143 °C.

For the molecule `FC(F)(F)c1ccn(-c2cc(-c3ccc4c(c3)OCO4)nc3ccccc23)n1`, the melting point is 98 to 100 °C.

In the case of `CCOC(=O)c1[nH]c2cc(Cl)cc(Cl)c2c1NCCCC(=O)c1ccccc1`, the melting point was 203 to 205 °C.

In turn, `COC(=O)C1C=C2c3cccc4[nH]c(Br)c(c34)CC2N(C)C1` (stereo not given) yielded a melting point of 124 to 125 °C.

In turn, `Fc1ccccc1-c1nc2cccnc2s1` gave a melting point of 119 to 121 °C.

Molecule `O=C(O)C1C2CCC(O2)C1C(=O)NCCN1C(=O)NC(c2ccccc2)(c2ccccc2)C1=O` (stereo not given) yielded a melting point of 208 to 210 °C.

Molecule `CC1=C(C(=O)c2ccc(C(F)(F)F)cc2)C(=O)C2C=CC=CC2C1=O` (stereo not given) came in with a melting point of 155 to 156 °C.

The molecule `CC(=O)OC(C)c1ccc(C=C(C)c2ccc3c(c2)C(C)(C)CCC3(C)C)cc1` (stereo not given) showed a melting point of 85 to 86 °C.

The molecule `CCCC(=O)OCC(=O)C1(OC(=S)CC)CCC2C3CC(C)C4=CC(=O)C=CC4(C)C3C(O)CC21C` (stereo not given) came in with a melting point of 126 to 128 °C.

`Cc1c(C)c2c(c(C)c1N)CC(C)(CN1CCC(OCc3ccccc3)CC1)O2` (stereo not given) displayed a melting point of 85 to 86 °C.

On to `COc1ccc(C2(C#N)CCC(=C3SCCCS3)CC2)cc1OC1CCCC1` (stereo not given), for which the melting point was 115 to 116 °C.

In turn, `CC(=O)c1ccc(-c2cn3ccccc3n2)cc1` returned a melting point of 209 to 210 °C.

On to `CC(C)c1nccc2c(CC(=O)O)cccc12`, for which the melting point lay within 181 to 182 °C.
